Measured values from patent US20240130368A1, “HERBICIDAL COMPOSITION” (Nippon Soda Co., Ltd., priority 2021, published 2024).
Like-named read-outs stand apart in the source and are kept apart here.

What was measured:
Assay type in all cases: in vivo
Ambrosia artemisiifolia = assay: Test Example 1: seeds on filter paper moistened with chemical solution, herbicidal effect visually evaluated; conditions: Ambrosia artemisiifolia, 144 h, visually evaluated 6 days after treatment
Procedure: As the compound (1), 1-methoxy-3-methyl-6-(1,1-dioxido-8-(trifluoromethyl)thiochroman-5-yl)-7-oxa-3,4-diazabicyclo[4.1.0]hept-4-en-2-one (Compound (I-3)) was used.
The compound (I) or compound (II) was prepared into a 5% emulsion using DMF (containing 1.5% Tween) and diluted with water to a prescribed dosage concentration. Commercially available preparations were dissolved in water and adjusted to a prescribed dosage concentration.
Seeds were soaked in 0.6% sodium hypochlorite for a predetermined time for surface sterilization and washed with water for use (seed disinfection). Seeds of Ambrosia artemisiifolia were used for the test.
Filter paper was placed on a cup (diameter: 10 cm, height: 4 cm) with a lid and moistened with 8 ml of chemical solution, and seeds were sown thereon, and after covering with a lid, grown in a constant temperature room.
The herbicidal effects were visually evaluated, 6 days after the treatment, as the herbicidal effect (%), by comparing with a state of an untreated group using a total of 21 scores of withering index from 0 to 20 (0: mortality rate equivalent to that of the untreated group, 20: mortality rate of 100%).
In addition, the expected values of the herbicidal effects were calculated from the herbicidal effects in a case where the compound (I) alone was applied and the herbicidal effects in a case where the compound (II) alone was applied by using the Colby's formula (Colby, S. R., Calculating synergistic and antagonistic responses of herbicide combinations, Weeds, 15, pp. 20-22 (1967)).
M indicates an herbicidal effect (%) in the application of the compound (I) alone, N indicates an herbicidal effect (%) in the application of the compound (II) alone, and E indicates an expected value (%) of the herbicidal effect in the combined application of the compound (T) and the compound (TT). When the actual measured value (%) of the herbicidal effect in the combined application of the compound (I) and the compound (II) is greater than the expected value E, it can be regarded that the combined application of the compound (I) and the compound (II) has a synergistic effect.

Triticum aestivum = assay: Test Example 5: spraying on the soil surface, herbicidal effect from above ground weight (useful plant); conditions: Compound (I-3) alone, sprayed on the soil surface, seven weeks after spraying
Procedure: (§1) POA allylphenyl ether (4.1 parts by weight), POE-POP glycol (1 part by weight), POE sorbitan laurate (0.8 parts by weight), glycerin (2.6 parts by weight), dimethylformamide (65.9 parts by weight), N-methylpyrrolidone (5.1 parts by weight), cyclohexanone (15.4 parts by weight), and aromatic hydrocarbons (5.1 parts by weight) were mixed and dissolved to prepare an emulsion. The active ingredient (4 mg) of the composition of the present invention was dissolved in this emulsion (100 μL) to prepare a test emulsion. It should be noted that POA means “polyoxyalkylene”, POE means “polyoxyethylene”, and POP means “polyoxypropylene”.
(§2) For the evaluation of the herbicidal effects, the above ground weights of weeds in the untreated and treated areas were measured for each weed 3 weeks after spraying treatment, and the herbicidal effect (%) was calculated by the following calculation formula.
(§3) Herbicidal effect (%)=[(above ground weight of weeds in untreated area)−(above ground weight of weeds in treated area)/(above ground weight of weeds in untreated area)]×100
(§4) A test emulsion was prepared in the same manner as in Test Example 4.
(§5) A 300 cm^2 pot was filled with soil, and seeds of Triticum aestivum, multidrug-resistant Alopecurus myosuroides, Lolium multiflorum and Avena fatua were sown into the surface layer, and covered with soil to a thickness of 0.5 to 1 cm. The above test emulsion was diluted so that the amount of the active ingredient became a predetermined amount, and sprayed on the soil surface at a spray water volume of 250 L per hectare, followed by growth in an outdoor environment.
(§6) Seven weeks after spraying, the evaluation was carried out in the same manner as in Test Example 4, except that the above ground weights of weeds in the untreated and treated areas were measured for each weed.
The following plants were used as useful plants [scientific names]. • Wheat [Triticum aestivum]

Avena fatua = assay: Test Example 5: spraying on the soil surface, herbicidal effect from above ground weight; conditions: Compound (I-3) alone, sprayed on the soil surface, seven weeks after spraying
Procedure: as §1, §2, §3, §4, §5, §6
(§7) The following grass species were used as grass species to be controlled [scientific names]. • Blackgrass * [Alopecurus myosuroides] • Italian ryegrass [Lolium multiflorum] • Wild oat [Avena fatua]

Lolium multiflorum = assay: as above; conditions: Compound (I-3) alone, sprayed on the soil surface, seven weeks after spraying
Procedure: as §1, §2, §3, §4, §5, §6, §7

[1] = system: multidrug-resistant Alopecurus myosuroides; assay: as above; conditions: Compound (I-3) alone, sprayed on the soil surface, seven weeks after spraying, Alopecurus myosuroides multidrug-resistant strain
Procedure: as §1, §2, §3, §4, §5, §6, §7

Ipomoea hederacea = assay: Test Example 6: foliar spraying treatment, herbicidal effect from above ground weight; conditions: Compound (I-3) alone
Procedure: as §1, §4
A 300 cm^2 pot was filled with soil, and seeds of Zea mays and Ipomoea hederacea were sown into the surface layer, and then grown in a greenhouse after being covered lightly with soil. When each plant grew to a plant height of 7 to 9 cm, the above test emulsion was diluted so that the amount of the active ingredient became a predetermined amount, and sprayed on the foliage with a small sprayer at a spray water volume of 250 L per hectare.
Test Examples 6-1 and 6-3 were evaluated in the same manner as in Test Example 4.
The expected values of the herbicidal effects in Test Example 6-2 were calculated using the following Colby's formula (Colby, S. R., Calculating synergistic and antagonistic responses of herbicide combinations, Weeds, 15, pp. 20-22 (1967)).
X indicates an herbicidal effect (%) by applying the compound (1) alone, Y and Z each indicate an herbicidal effect (%) by applying one of the two types of the compounds (II) alone, and E indicates an expected value (%) of the herbicidal effect by applying combinations of the compound (I) and two types of the compounds (II).
When the actual measured value (%) of the herbicidal effect by the combined application of the compound (I) and two types of the compounds (11) is greater than the expected value E, it can be regarded that the combined application of the compound (1) and two types of the compounds (II) has a synergistic effect.
The following grass species were used as grass species to be controlled [scientific names]. • Morning glory [Ipomoea hederacea]

SMILES: COC12OC1(c1ccc(C(F)(F)F)c3c1CCCS3(=O)=O)C=NN(C)C2=O (stereo not drawn) [Compound (I-3), 1-methoxy-3-methyl-6-(1,1-dioxido-8-(trifluoromethyl)thiochroman-5-yl)-7-oxa-3,4-diazabicyclo[4.1.0]hept-4-en-2-one]
- pest or weed control at 3.1 ppm (Ambrosia artemisiifolia; read-out: Herbicidal effect (%), applied alone, amount of active ingredient 3.1 ppm): 65%
- pest or weed control at 3.1 ppm (Ambrosia artemisiifolia; read-out: Herbicidal effect (%), compound applied alone, amount of active ingredient 3.1 ppm): 70%
- Actual measured value of herbicidal effect (Triticum aestivum; 63 gai/ha): 0%
- Actual measured value of herbicidal effect (Triticum aestivum; 125 gai/ha): 0%
- Actual measured value of herbicidal effect (Avena fatua; 63 gai/ha): 0%
- Actual measured value of herbicidal effect (Avena fatua; 125 gai/ha): 20%
- Actual measured value of herbicidal effect (Lolium multiflorum; 63 gai/ha): 60%
- Actual measured value of herbicidal effect (Lolium multiflorum; 125 gai/ha): 80%
- Actual measured value of herbicidal effect ([1]; 63 gai/ha): 0%
- Actual measured value of herbicidal effect ([1]; 125 gai/ha): 30%
- Actual measured value of herbicidal effect (Ipomoea hederacea; 94 gai/ha): 80%
- Actual measured value of herbicidal effect (Ipomoea hederacea; 125 gai/ha): 60%
